Experimental findings from ChEMBL document CHEMBL4819059, “3-Hydroxy-4-methyldecanoic Acid-Containing Cyclotetradepsipeptides from an Endolichenic Beauveria sp” (J Nat Prod, 2021) are described below.

Assay type in all cases: functional, cell-based
Assay [1] concerns L6. The assay is described as follows: Induction of glucose uptake in rat L6 myoblasts at 50 uM after 24 hrs.
In assay [2] the test system is L6. The experiment in a line: Induction of glucose uptake in rat L6 myoblasts after 24 hrs. To be noted: dose 0.3125-80 µM.
Assay [3] relates to L6. The assay is described as follows: Induction of glucose uptake in rat L6 myotubes after 24 to 48 hrs. To be noted: dose 2.5-80 µM, time 24-48 hrs.
Another assay deals with HEI-OC1. The assay is described as follows: Protective activity against […] HEI-OC1 cells assessed as cell viability at 10 uM after 48 hrs by CCK8 assay. Background: Tetrazolium dyes change colour on reduction, which living cells bring about.

The structures appear in SMILES notation. The source made the active and inactive calls. The rule behind the calls is not given here.

As for `CCCCCC[C@H](C)[C@@H]1CC(=O)N[C@@H](Cc2c[nH]c3ccccc23)C(=O)N[C@@H](Cc2ccc(O)cc2)C(=O)N[C@H]([C@@H](C)CC)C(=O)O1`, the outcome in the assay with L6 [1] was Active.

For `CCCCCCC(C)[C@@H]1CC(=O)N[C@@H](Cc2ccc(O)cc2)C(=O)N[C@@H](Cc2ccc(O)cc2)C(=O)N[C@H]([C@@H](C)CC)C(=O)O1` (some centres undefined), the result in the assay on L6 [1] was Active.

For `CCCCCC[C@H](C)[C@@H]1CC(=O)N[C@@H](Cc2c[nH]c3ccccc23)C(=O)N[C@@H](Cc2ccccc2)C(=O)N[C@H]([C@@H](C)CC)C(=O)O1`, the Activity entry in the assay with L6 [2] and with L6 [3] was “Dose-Dependent Effect” each time. The outcome in the assay on L6 [1] and with HEI-OC1 was Active.

`CCCCCC[C@H](C)[C@@H]1CC(=O)N[C@@H](Cc2c[nH]c3ccccc23)C(=O)N[C@@H](Cc2ccc(O)cc2)C(=O)N[C@H](CC(C)C)C(=O)O1`: in the assay on L6 [1], the result was Active.

In the case of `CCCCCC[C@H](C)[C@@H]1CC(=O)N[C@@H](Cc2c[nH]c3ccccc23)C(=O)N[C@@H](Cc2ccccc2)C(=O)N[C@H](CC(C)C)C(=O)O1`, the result in the assay on HEI-OC1 was Active.

For the compound `CCCCCC[C@H](C)[C@@H]1CC(=O)N[C@@H](Cc2ccc(O)cc2)C(=O)N[C@@H](Cc2ccccc2)C(=O)N[C@H]([C@@H](C)CC)C(=O)O1`, the outcome in the assay with HEI-OC1 was Active.
